Several values for one entry are separate records, joined by “and”; a condition that tells them apart may be missing. Equal entries are not always repeated. Where two headings read alike, the source gives them in different places.
Test: in vivo
Type: in vivo
Settings: rat
Experimental: […] Whole blood samples were taken from a lateral tail vein for plasma separation at time points 0 min, 30 min, 1 h, 2 h and 4 h after p.o. dosing; and 0 min, 15 min, 30 min, 1 h, and 2 h after i.v. dosing, while the terminal samples at time point 6 h after dosing (p.o and Lv.) were taken by cardiac puncture. All time points were taken from a single rat, and all experiments were carried out in triplicate.
The samples were thawn at room temperature and prepared by protein precipitation with ratio 1:2 of plasma and acetonitrile and were centrifuged 10 minutes at 16 100×g (Eppendorf 5415D, Eppendorf AG, Hamburg, Germany) before injection to UPLCIMSMS system. The standard samples were prepared similarly, after spiking blank plasma samples to 0.5, 2, 5, 10, 20, 50, 200, 500, 1000 and 2000 ng/ml of the analyte compounds.
The pharmacokinetic parameters for study compounds were calculated by WinNonlin Pro (Pharsight Corp, CA) using standard noncompartmental methods. The volume of distribution (Vd) was based on the terminal phase. The elimination phase half-life (t1/2) was calculated by least-squares regression analysis of the terminal linear part of the log concentration-time curve. The area under the plasma concentration-time curve (AUC) was determined by use of the linear trapezoidal rule up to the last measurable concentration and thereafter by extrapolation of the terminal elimination phase to infinity. The area under the plasma concentration-time curve without terminal extrapolation is reported as AUC 0-6 h. The mean residence time (MRT) representing the average amount of time a compound remains in a compartment or system was calculated extrapolating the drug concentration profile to infinity. The maximum plasma concentration (cmax) and the time to cmax (tmax) were derived directly from the plasma concentration data. The tentative oral bioavailability (F) was calculated by dividing the AUC after p.o. administration by the AUC after i.v. administration taking into account the differences in dose, i.e. F=AUC(p.o.)/Dose(p.o.)/AUC(i.v)/[…], and reported as percentages (%).
A Waters Acquity chromatographic system (Waters Corp., Milford, Mass., USA) with autosampler, vacuum degasser and column oven was used. The analytical column used for all compounds was a Waters BEH ShieldRP18, (2.1×50 mm, 1.7 μm, Waters Corp, Milford, Mass., USA) together with an on-line filter. The eluents were 0.1% acetic acid (A, pH 3.2) and acetonitrile (B). A linear gradient elution from 5% B to 35% B in 0-2 minutes, from 35% B to 85% B in 2.0-3.0 min was employed, followed by 1 min isocratic elution with […] and column equilibration. The flow rate was 0.5 ml/min and the column oven temperature was 35° C. LC/MS/MS/data was acquired with a Micromass Quattro Premier triple quadrupole mass spectrometer equipped with a LockSpray electrospray ionization source. A negative ion mode ionisation was used. The multiple reaction monitoring (MRM) mode of detection was used. The mass spectrometer and UPLC system were operated under Micromass MassLynx 4.1 software. Complete LC/MS/MS parameters are presented in Appendix I.
Detection/quantitation limits between 2 ng/ml and 10 ng/ml in plasma were obtained for each compound. Calibration curves for quantification were generated by fitting the ratio of the external standard peak areas as a function of the concentration, excluding the point of origin and using 1/x weighting and linear or quadratic fitting. The ranges up to 2000 ng/ml were fitted for calibration curves. […] The overall precisions 12.0-17.0% were calculated from the standard samples (two injection/concentration), using Snedecor equation S=(Σd^2/2n)^0.5, in which S=precision, d is the difference between duplicates expressed as % of the mean value, and N is the number of standard concentration. The concentrations of each study compound in the samples are shown in the Appendices IV-VI.

[1] = 2 mg/kg i.v., individual animals, 2 mg/kg
[2] = in vivo, iv, 2 mg/kg, 2 mg/kg i.v., individual animals, read-out: t1/2
[3] = in vivo, iv, 2 mg/kg, i.v. 2 mg/kg, mean n=3, read-out: t1/2
[4] = 20 mg/kg p.o., individual animals, 20 mg/kg

CC(C)c1cc(-c2ccc(Cl)cc2)cc(C(C)C)c1O [4-(p-Cl—Ph)-propofol, 4-(para-Chlorophenyl)-propofol]
bioavailability (plasma, po, 20 mg/kg p.o. vs 2 mg/kg i.v., read-out: F (%) tentative oral bioavailability): 0%
tmax (2 mg/kg i.v., individual animals): 0.25 h
AUC [1]: 36.3 µg·min/mL and 40.8 µg·min/mL and 68.8 µg·min/mL
CL/F [1]: 55.1 mL/min/kg and 49.1 mL/min/kg and 29.1 mL/min/kg
MRT [1]: 1.51 h and 0.782 h
cmax [1]: 0.46 µg/mL and 0.78 µg/mL
t1/2 [1]: 1.54 h and 1.78 h
ADC 0-6 h (i.v. 2 mg/kg, mean n=3): 46.6 µg·min/mL
AUC (i.v. 2 mg/kg, mean n=3): 48.6 µg·min/mL
CL/F (i.v. 2 mg/kg, mean n=3): 44.4 mL/min/kg
clearance (in words) (i.v. dosing, compared to rat liver blood flow): in the range of hepatic blood flow
half-life [2]: 1.52 h
half-life [3]: 1.61 h
concentration in plasma (iv (2 mg/kg), 15 min, individual animals, listed as CK2-3, 2 mg/kg): 398 ng/mL and 456 ng/mL
concentration in plasma (iv (2 mg/kg), 30 min, individual animals, listed as CK2-3, 2 mg/kg): 123 ng/mL and 187 ng/mL and 307 ng/mL
concentration in plasma (iv (2 mg/kg), 1 h, individual animals, listed as CK2-3, 2 mg/kg): 149 ng/mL and 156 ng/mL
concentration in plasma (iv (2 mg/kg), 2 h, individual animals, listed as CK2-3, 2 mg/kg): 62.4 ng/mL and 74.2 ng/mL
concentration in plasma (iv (2 mg/kg), 6 h, individual animals, listed as CK2-3, 2 mg/kg): 14.6 ng/mL and 14.9 ng/mL
detection in plasma after oral (p.o.) administration: detected in plasma only after i.v. administration
detection in plasma after oral (p.o.) administration (listed as CK-2-3): not detected
half-life (plasma, iv, 2 mg/kg, i.v. administration, read-out: half life (converted)): ~1.5 h
concentration at 15 min (plasma, iv, 2 mg/kg, iv (2 mg/kg), 15 min, individual animals): 784 ng/mL
concentration at 1 h (plasma, iv, 2 mg/kg, iv (2 mg/kg), 1 h, individual animals): 79.7 ng/mL
concentration at 2 h (plasma, iv, 2 mg/kg, iv (2 mg/kg), 2 h, individual animals): 63.9 ng/mL
concentration at 6 h (plasma, iv, 2 mg/kg, iv (2 mg/kg), 6 h, individual animals): 13.1 ng/mL

CC(C)c1cc(-c2ccc(Cl)c(F)c2)cc(C(C)C)c1O [p-(3-F,4-Cl—Ph)-propofol, Para-(3-Fluoro,4-chlorophenyl)-propofol]
CL/F [1]: 24.9 mL/min/kg and 30.4 mL/min/kg and 32.5 mL/min/kg
t1/2 [1]: 1.53 h and 1.65 h
CL/F [4]: 153 mL/min/kg and 434 mL/min/kg and 105 mL/min/kg
t1/2 [4]: 7.8 h and 18.5 h and 13.1 h
CL/F (i.v. 2 mg/kg, mean n=3): 29.3 mL/min/kg
bioavailability (in vivo): ~18%
clearance (in words) (in vivo, iv): intermediate
half life (in words) (in vivo, iv): intermediate
ADC 0-6 h (in vivo, iv, 2 mg/kg): 64.1 µg·min/mL
tmax (in vivo, iv, 2 mg/kg): 0.25 h
half-life [2]: 1.36 h
half-life [3]: 1.52 h
concentration at 30 min (in vivo, iv, 2 mg/kg, iv (2 mg/kg), 30 min, individual animals, read-out: concentration in plasma): 444 ng/mL
concentration at 1 h (in vivo, iv, 2 mg/kg, iv (2 mg/kg), 1 h, individual animals, read-out: concentration in plasma): 316 ng/mL
concentration at 2 h (in vivo, iv, 2 mg/kg, iv (2 mg/kg), 2 h, individual animals, read-out: concentration in plasma): 90.3 ng/mL
concentration at 6 h (in vivo, iv, 2 mg/kg, iv (2 mg/kg), 6 h, individual animals, read-out: concentration in plasma): 24.1 ng/mL
ADC 0-6 h (in vivo, po, 20 mg/kg): 34.6 µg·min/mL
CL (in vivo, po, 20 mg/kg): 41.1 mL/min/kg
Tmax (in vivo, po, 20 mg/kg): 0.5 h
Vd (in vivo, po, 20 mg/kg): 54.4 L/kg
bioavailability (in vivo, po, 20 mg/kg): 17.8%
tmax (in vivo, po, 20 mg/kg): 0.5 h
Vd/F (in vivo, po, 20 mg/kg, p.o. 20 mg/kg, mean n=3): 306 L/kg
CL/F (in vivo, po, 20 mg/kg, p.o. 20 mg/kg, mean n=3, read-out: CL/F): 231 mL/min/kg
half-life (in vivo, po, 20 mg/kg, p.o. 20 mg/kg, mean n=3, read-out: t1/2): 13.2 h
concentration in plasma (iv (2 mg/kg), 15 min, individual animals, listed as CK2-9, 2 mg/kg): 1100 ng/mL and 689 ng/mL and 535 ng/mL
concentration in plasma (iv (2 mg/kg), 30 min, individual animals, listed as CK2-9, 2 mg/kg): 499 ng/mL and 513 ng/mL
concentration in plasma (iv (2 mg/kg), 1 h, individual animals, listed as CK2-9, 2 mg/kg): 329 ng/mL and 297 ng/mL
concentration in plasma (iv (2 mg/kg), 2 h, individual animals, listed as CK2-9, 2 mg/kg): 74.0 ng/mL and 81.3 ng/mL
concentration in plasma (iv (2 mg/kg), 6 h, individual animals, listed as CK2-9, 2 mg/kg): 44.0 ng/mL and 46.6 ng/mL
detection in plasma after oral (p.o.) administration: observed in plasma
concentration in plasma (po (20 mg/kg), 30 min, individual animals, listed as CK2-9, 20 mg/kg): 172 ng/mL and 213 ng/mL and 63.0 ng/mL
concentration in plasma (po (20 mg/kg), 1 h, individual animals, listed as CK2-9, 20 mg/kg): 182 ng/mL and 26.6 ng/mL and 121 ng/mL
concentration in plasma (po (20 mg/kg), 2 h, individual animals, listed as CK2-9, 20 mg/kg): 134 ng/mL and 26.2 ng/mL and 168 ng/mL
concentration in plasma (po (20 mg/kg), 4 h, individual animals, listed as CK2-9, 20 mg/kg): 21.5 ng/mL and 97.6 ng/mL
concentration in plasma (po (20 mg/kg), 6 h, individual animals, listed as CK2-9, 20 mg/kg): 121 ng/mL and 22.9 ng/mL and 128 ng/mL

— US8507724B2 (priority 2008, dated 2013)
